# Test results taken from paper PMC7313537 (PLoS ONE, 2020).
# Experiments:
# [1] = molecular target: RPS6KB1 (Homo sapiens, UniProt P23443); experiment: Enzyme selectivity panel; type: biochemical; details: 1 mM ATP
# Description: (§2) The kinase assays were carried out at room temperature in HEPES 50 mM, pH 7.0, NaN3 0.02%, BSA 0.01%, Orthovanadate 0.1 mM, DTT 1 mM, MgCl2 10 mM in a final volume of 10 µL. Test compounds were transferred to the plate wells by ECHO liquid handler (Labcyte, San Jose, CA) with 0.5% dimethyl sulfoxide (DMSO) in the final assay. Peptide/kinase mixtures were diluted in the appropriate enzymatic buffer and 5µL of the mixture was added to a 384-well small volume black plate. Reactions were initiated by the addition of 5 µL ATP in reaction buffer, the final reaction mixture consisted of 500 nM peptide substrate, 1 mM ATP, and appropriate amount of specific kinase. […] The plates were then sealed and centrifuged at 1800 rpm for 2 minutes. […] Half maximal inhibitory concentration (IC50) determination was performed by fitting the curve of percent control activity versus the log of the compound concentration using the GraphPad Prism 6.0 software.
# [2] = molecular target: ROCK1 (Homo sapiens, UniProt Q13464); experiment: Enzyme selectivity panel; type: biochemical; details: 1 mM ATP
# Description: as §2
# [3] = molecular target: MAPKAPK2 (Homo sapiens, UniProt P49137); experiment: Enzyme selectivity panel; type: biochemical; details: 1 mM ATP
# Description: as §2
# [4] = molecular target: SYK (Homo sapiens, UniProt P43405); experiment: Enzyme selectivity panel; type: biochemical; details: 1 mM ATP
# Description: as §2
# [5] = molecular target: MSSK1 (Homo sapiens, UniProt Q9UPE1); experiment: Enzyme selectivity panel; type: biochemical; details: 1 mM ATP
# Sequence of MSSK1 (Q9UPE1 whole entry, species assumed): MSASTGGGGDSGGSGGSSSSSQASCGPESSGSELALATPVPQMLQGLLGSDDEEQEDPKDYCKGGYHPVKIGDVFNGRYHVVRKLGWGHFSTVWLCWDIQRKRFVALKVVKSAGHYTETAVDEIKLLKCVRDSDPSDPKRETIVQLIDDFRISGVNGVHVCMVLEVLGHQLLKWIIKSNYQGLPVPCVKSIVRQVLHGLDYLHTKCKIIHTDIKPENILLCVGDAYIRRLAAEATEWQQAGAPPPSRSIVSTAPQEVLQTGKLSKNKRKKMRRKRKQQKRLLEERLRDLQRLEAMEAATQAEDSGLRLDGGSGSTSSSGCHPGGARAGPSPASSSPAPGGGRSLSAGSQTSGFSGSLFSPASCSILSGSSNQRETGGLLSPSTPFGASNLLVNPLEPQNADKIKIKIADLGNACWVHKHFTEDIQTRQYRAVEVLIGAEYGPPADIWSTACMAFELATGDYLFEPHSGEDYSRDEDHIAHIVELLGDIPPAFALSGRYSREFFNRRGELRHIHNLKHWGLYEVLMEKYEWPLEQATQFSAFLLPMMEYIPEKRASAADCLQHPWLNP
# Description: as §2
# [6] = tested on: primary T cells from normal donors; details: up to 1,500 nM
# [7] = tested on: FGFR3 phosphorylation in RT-4 cells; experiment: Proximity ligation assay; type: cell-based; details: 100 nM, 1 hour
# Source text: S4 Figure. FGFR3 Phosphorylation Detected by Proximity Ligation Assay. […] Primary antibodies were rabbit anti-FGFR3 (Abcam, Cambridge, UK, #137084) at a 1:250 dilution and mouse 4G10 platinum anti-phosphotyrosine monoclonal cocktail IgG2b (Millipore, Burlington, MA, #05-1050) at a 1:250 dilution. Secondary probes were Duolink In Situ PLA® Probe Anti-Rabbit PLUS, affinity purified donkey anti-rabbit IgG (H+L) and Duolink In Situ PLA® Probe Anti-Mouse MINUS, Affinity purified donkey anti-mouse IgG (H+L). Detection was via Duolink In Situ Detection Reagents Red.
# [8] = molecular target: T1, CHK2 (Homo sapiens, UniProt O96017); experiment: Broader kinase panel (PerkinElmer); type: biochemical; details: 100 nM; read-out: Average Percent Inhibition
# T1 construct: purchased In-house HTRF panel (56 kinases) and PerkinElmer (161-kinase panel)
# T1 sequence (O96017 whole entry): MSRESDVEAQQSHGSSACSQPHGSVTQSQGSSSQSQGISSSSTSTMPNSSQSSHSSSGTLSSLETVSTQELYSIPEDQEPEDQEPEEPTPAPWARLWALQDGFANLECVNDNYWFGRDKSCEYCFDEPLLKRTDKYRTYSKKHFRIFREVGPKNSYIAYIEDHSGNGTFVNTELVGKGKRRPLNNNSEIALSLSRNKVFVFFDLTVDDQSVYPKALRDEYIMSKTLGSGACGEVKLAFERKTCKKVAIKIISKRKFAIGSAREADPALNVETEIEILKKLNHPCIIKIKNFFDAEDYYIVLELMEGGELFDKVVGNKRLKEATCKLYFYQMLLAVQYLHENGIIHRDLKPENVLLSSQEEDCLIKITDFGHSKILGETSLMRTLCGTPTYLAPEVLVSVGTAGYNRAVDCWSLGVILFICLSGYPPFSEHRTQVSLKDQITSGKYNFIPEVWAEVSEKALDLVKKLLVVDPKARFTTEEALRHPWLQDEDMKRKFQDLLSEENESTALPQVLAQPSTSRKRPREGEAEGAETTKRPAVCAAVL
# Source text: (§1) […]. […] […].
# [9] = molecular target: T2, PhKg1 (Homo sapiens, UniProt Q16816); experiment: Broader kinase panel (PerkinElmer); type: biochemical; details: 100 nM; read-out: Average Percent Inhibition
# T2 construct: purchased In-house HTRF panel (56 kinases) and PerkinElmer (161-kinase panel)
# T2 sequence (Q16816 whole entry): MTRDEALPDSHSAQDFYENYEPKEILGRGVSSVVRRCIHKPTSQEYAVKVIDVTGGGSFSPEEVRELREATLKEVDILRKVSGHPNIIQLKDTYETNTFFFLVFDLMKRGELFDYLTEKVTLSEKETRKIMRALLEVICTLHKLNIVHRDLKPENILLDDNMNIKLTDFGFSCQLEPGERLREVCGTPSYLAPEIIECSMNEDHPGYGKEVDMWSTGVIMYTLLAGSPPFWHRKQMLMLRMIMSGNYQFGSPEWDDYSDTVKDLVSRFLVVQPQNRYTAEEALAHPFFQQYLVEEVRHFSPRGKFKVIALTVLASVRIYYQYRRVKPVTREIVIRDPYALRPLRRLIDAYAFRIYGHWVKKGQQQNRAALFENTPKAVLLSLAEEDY
# Source text: as §1
# [10] = tested on: KG1a (AML); experiment: Cell viability assay (CellTiter-Glo); type: cell-based; details: Homo sapiens, KG-1a; FGFR1OP2-FGFR1 fusion; 72 hours; read-out: Mean GI50 ± S.D.
# [11] = molecular target: AURKA (Homo sapiens, UniProt O14965); experiment: Enzyme selectivity panel; type: biochemical; details: 1 mM ATP
# Sequence of AURKA (O14965 whole entry, species assumed): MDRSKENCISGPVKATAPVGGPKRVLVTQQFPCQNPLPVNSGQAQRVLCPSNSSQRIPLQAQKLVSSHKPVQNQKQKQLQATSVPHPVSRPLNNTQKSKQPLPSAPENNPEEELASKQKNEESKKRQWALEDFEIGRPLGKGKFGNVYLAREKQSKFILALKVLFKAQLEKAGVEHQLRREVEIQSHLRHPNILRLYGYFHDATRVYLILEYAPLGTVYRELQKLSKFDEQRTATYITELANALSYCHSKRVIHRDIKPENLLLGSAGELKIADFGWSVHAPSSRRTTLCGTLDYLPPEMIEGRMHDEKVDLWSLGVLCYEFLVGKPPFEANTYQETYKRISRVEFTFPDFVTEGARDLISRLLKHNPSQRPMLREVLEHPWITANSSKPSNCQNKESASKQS
# Description: as §2
# [12] = tested on: H1581 (lung cancer); experiment: Cell viability assay (CellTiter-Glo); type: cell-based; details: Homo sapiens, NCI-H1581; FGFR1 amplification; 72 hours; read-out: Mean GI50 ± S.D.
# [13] = tested on: KATO III (gastric cancer); experiment: Cell viability assay (CellTiter-Glo); type: cell-based; details: Homo sapiens, FGFR2 amplification, 72 hours, read-out: Mean GI50 ± S.D.
# [14] = cited from earlier work
# [15] = molecular target: ZAP70 (Homo sapiens, UniProt P43403); experiment: Enzyme selectivity panel; type: biochemical; details: 1 mM ATP
# Description: as §2
# [16] = Plasma protein binding (equilibrium dialysis); type: in vitro ADME, cynomolgus monkey; details: pH 7.4, monkey plasma, read-out: PPB (% free)
# Description: The final DMSO content in all cases was <0.1%. Each condition was incubated in duplicate. For protein binding determination, the Multi-Equilibrium Dialyzer System™ and diachema membranes from Harvard Apparatus (Holliston, MA) were utilized. Equilibrium dialysis was carried out in Teflon cells separated by a dialysis membrane with a molecular weight cutoff of 10,000 Daltons. […] The cells were rotated at a speed of 12 rpm in a 37°C water bath for 2 hours. Following the incubation period, buffer and serum/plasma samples were drained separately into empty preweighed glass test tubes. The tubes were reweighed, and the exact volume of sample recovered from each side of the dialysis cell was calculated using the mass. A 75-μL aliquot of each sample (buffer or serum/plasma) was added to a 96-well plate containing a protein precipitation solution of 100% methanol and 0.2 μM dextrorphan as the internal standard; 75 μL of blank buffer or plasma/serum was added to the plate to ensure identical composition across all samples. Prior to analysis, samples prepared in the 96-well plate were vigorously vortexed for approximately 5 minutes and centrifuged for 10 minutes at ~1700 × g to remove denatured proteins and particulate matter. The supernatant was transferred and analyzed using LC-MS/MS.
# [17] = molecular target: T3, PHKG2 (Homo sapiens, UniProt P15735); experiment: Enzyme selectivity panel; type: biochemical; details: 1 mM ATP
# T3 construct: purchased In-house HTRF panel (56 kinases) and PerkinElmer (161-kinase panel)
# T3 sequence (P15735 whole entry, species assumed): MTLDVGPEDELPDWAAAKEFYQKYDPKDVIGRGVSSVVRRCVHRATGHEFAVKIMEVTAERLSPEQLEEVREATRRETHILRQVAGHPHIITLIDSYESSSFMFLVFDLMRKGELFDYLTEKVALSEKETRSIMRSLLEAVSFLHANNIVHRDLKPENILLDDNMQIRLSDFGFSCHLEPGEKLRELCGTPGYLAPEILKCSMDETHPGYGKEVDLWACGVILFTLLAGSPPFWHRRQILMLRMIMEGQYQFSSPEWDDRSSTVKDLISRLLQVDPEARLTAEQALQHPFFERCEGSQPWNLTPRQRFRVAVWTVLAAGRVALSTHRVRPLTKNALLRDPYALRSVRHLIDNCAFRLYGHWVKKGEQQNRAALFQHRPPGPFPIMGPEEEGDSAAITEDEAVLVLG
# Description: as §2
# [18] = molecular target: T4, SGK2 (Homo sapiens, UniProt Q9HBY8); experiment: Enzyme selectivity panel; type: biochemical; details: 1 mM ATP
# T4 construct: purchased In-house HTRF panel (56 kinases) and PerkinElmer (161-kinase panel)
# T4 sequence (Q9HBY8 whole entry, species assumed): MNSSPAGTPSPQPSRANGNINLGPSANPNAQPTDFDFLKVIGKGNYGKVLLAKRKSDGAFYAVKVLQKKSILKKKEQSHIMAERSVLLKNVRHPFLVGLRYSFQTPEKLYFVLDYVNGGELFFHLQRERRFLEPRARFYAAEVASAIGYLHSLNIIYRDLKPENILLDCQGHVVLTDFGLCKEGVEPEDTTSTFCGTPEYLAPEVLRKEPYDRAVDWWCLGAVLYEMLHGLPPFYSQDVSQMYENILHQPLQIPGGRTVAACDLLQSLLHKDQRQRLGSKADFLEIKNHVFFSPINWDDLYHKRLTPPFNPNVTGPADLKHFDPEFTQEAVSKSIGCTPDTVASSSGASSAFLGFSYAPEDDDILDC
# Description: as §2
# [19] = Pharmacokinetic analyses; type: in vivo, beagle dogs; details: male dog
# Description: The i.v. formulation in rats was 5% dimethylacetamide (DMAC) and 25% sulfobutyl ether β-cyclodextrin in acidified saline (pH 3). The i.v. formulation in dogs and monkeys was 5% DMAC and 20% sulfobutyl ether β-cyclodextrin in saline. The oral formulation in all species was 5% DMAC in 0.5% methylcellulose aqueous solution. For rats, blood samples were collected at predose, 5 (i.v. dosing only), 15, and 30 minutes, and 1, 2, 4, 6, 8, and 24 hours. For dogs, blood samples were collected at predose, 2.5 and 5 (i.v. dosing only), 15, and 30 minutes, and 1, 2, 3, 4, 6, 8, 12, and 24 hours postdose. For monkeys, blood samples were collected at predose, 5 and 10 (i.v. dosing only), 15, and 30 minutes, and 1, 2, 3, 4, 6, 8, 12, 16, and 24 hours postdose. Collected blood samples were processed to extract plasma by centrifugation and stored at −20 °C until analysis.
# The plasma was protein precipitated and the diluted supernatant was analyzed using LC/MS/MS. A standard curve was prepared in plasma from 1 to 5,000 nM and processed in the same manner as the samples. The pharmacokinetic parameters were determined using WinNonLin 6.3.
# [20] = molecular target: SGK3 (Homo sapiens, UniProt Q96BR1); experiment: Enzyme selectivity panel; type: biochemical; details: 1 mM ATP
# Description: as §2
# [21] = molecular target: LRRK2 (Homo sapiens, UniProt Q5S007); experiment: Enzyme selectivity panel; type: biochemical; details: 1 mM ATP
# Description: as §2
# [22] = molecular target: T5, DDR2 (Homo sapiens, UniProt Q16832); experiment: Enzyme selectivity panel; type: biochemical; details: 1 mM ATP
# T5 construct: purchased In-house HTRF panel (56 kinases) and PerkinElmer (161-kinase panel)
# Description: as §2
# [23] = molecular target: T6, SGK1 (Homo sapiens, UniProt O00141); experiment: Enzyme selectivity panel; type: biochemical; details: 1 mM ATP
# T6 construct: purchased In-house HTRF panel (56 kinases) and PerkinElmer (161-kinase panel)
# T6 sequence (O00141 whole entry, species assumed): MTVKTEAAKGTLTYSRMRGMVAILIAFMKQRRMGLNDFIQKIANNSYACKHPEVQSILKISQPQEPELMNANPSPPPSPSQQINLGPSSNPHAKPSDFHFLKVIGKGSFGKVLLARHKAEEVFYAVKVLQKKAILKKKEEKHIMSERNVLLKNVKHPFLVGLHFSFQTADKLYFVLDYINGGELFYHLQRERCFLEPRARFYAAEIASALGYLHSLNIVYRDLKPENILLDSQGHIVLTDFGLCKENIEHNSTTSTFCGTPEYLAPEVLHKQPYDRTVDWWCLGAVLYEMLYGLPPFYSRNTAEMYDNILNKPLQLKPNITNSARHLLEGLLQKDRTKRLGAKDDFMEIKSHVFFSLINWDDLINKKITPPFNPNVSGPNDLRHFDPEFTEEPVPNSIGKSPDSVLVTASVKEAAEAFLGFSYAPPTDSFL
# Description: as §2
# Sequence of RPS6KB1 (P23443 whole entry, species assumed): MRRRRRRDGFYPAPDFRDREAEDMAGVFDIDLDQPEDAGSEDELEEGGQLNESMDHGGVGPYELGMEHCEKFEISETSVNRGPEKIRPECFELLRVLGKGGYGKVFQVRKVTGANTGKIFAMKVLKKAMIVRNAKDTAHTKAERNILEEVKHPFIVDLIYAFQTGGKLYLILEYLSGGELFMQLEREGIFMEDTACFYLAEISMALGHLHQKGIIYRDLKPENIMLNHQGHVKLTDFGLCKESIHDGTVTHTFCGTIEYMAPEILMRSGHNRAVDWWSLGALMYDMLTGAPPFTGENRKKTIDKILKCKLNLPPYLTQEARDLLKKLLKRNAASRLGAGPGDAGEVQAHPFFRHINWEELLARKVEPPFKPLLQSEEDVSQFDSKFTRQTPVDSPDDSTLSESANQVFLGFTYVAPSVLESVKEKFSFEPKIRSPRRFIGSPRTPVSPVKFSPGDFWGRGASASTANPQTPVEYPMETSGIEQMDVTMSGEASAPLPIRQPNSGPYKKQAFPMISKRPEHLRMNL
# Sequence of ROCK1 (Q13464 whole entry, species assumed): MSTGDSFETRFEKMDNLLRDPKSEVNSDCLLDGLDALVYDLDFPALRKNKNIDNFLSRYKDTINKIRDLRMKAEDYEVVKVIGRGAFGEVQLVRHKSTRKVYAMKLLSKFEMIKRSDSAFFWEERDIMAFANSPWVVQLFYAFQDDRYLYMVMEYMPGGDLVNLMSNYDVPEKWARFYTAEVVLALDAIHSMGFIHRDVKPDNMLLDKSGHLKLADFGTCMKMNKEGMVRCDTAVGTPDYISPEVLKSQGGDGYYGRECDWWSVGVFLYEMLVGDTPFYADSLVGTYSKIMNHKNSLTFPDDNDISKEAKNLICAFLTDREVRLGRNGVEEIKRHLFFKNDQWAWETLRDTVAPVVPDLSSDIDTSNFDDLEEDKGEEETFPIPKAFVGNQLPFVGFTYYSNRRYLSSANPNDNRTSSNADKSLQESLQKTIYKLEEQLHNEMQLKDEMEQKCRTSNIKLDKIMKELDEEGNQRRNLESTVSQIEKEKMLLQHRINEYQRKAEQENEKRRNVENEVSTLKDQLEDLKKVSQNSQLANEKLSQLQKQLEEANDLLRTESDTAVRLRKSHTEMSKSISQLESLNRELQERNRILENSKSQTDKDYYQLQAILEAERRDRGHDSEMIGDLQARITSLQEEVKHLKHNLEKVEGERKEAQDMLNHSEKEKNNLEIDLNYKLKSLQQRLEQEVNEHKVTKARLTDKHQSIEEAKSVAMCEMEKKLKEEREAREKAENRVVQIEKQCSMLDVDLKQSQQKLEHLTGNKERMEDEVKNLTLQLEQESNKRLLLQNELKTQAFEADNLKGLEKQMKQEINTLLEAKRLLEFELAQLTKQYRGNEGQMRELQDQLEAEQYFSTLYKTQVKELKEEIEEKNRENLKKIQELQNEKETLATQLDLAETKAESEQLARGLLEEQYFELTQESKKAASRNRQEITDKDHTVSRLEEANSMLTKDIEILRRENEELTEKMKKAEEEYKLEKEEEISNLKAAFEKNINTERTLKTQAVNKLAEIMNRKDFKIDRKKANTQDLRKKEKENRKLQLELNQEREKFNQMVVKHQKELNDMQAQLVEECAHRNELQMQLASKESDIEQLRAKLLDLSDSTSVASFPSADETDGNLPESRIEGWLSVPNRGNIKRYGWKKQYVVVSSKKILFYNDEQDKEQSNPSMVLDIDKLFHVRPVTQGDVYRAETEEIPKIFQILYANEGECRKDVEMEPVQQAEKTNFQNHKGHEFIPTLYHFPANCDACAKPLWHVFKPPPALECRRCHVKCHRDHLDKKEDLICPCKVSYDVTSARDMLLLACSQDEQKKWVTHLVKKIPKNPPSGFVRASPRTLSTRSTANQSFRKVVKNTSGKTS
structure (smiles),measurement,setting,value
"CCN1C(=O)N(c2c(F)c(OC)cc(OC)c2F)Cc2cnc3[nH]c(CN4CCOCC4)cc3c21 [INCB054828, pemigatinib]",IC50,[1],> 10 µM
same,IC50,[2],> 10 µM
same,IC50,[3],> 10 µM
same,IC50,[4],> 10 µM
same,IC50,[5],> 10 µM
same,inhibition of the proliferation of primary T cells,[6],no inhibition
same,FGFR3 phosphorylation,[7],a decrease was detected
same,inhibition at 0.1 µM,[8],4%
same,inhibition at 0.1 µM,[9],-2%
same,GI50,[10],0.003 ± 0.001 µM
same,IC50,[11],> 10 µM
same,GI50,[12],0.014 ± 0.009 µM
same,GI50,[13],0.003 ± 0.001 µM
same,safety profile in phase 1 clinical trials,[14],favorable safety profile
same,pharmacokinetic data in patients,[14]; phase 1 dose-escalation study ref 33,low clearance and dose-linearity
same,IC50,[15],> 10 µM
same,"fraction unbound at 2 h, 1 μM",[16],0.082
same,IC50,[17],> 10 µM
same,IC50,[18],> 10 µM
same,clearance,"[19]; beagle, plasma, intravenous 1 mg/kg",3.05 mL/min/kg
same,Cmax,"[19]; beagle, plasma, oral 2 mg/kg",1770 nM
same,bioavailability,"[19]; beagle, plasma, oral 2 mg/kg",98%
same,Vss,[19]; intravenous 1 mg/kg,3.49 L/kg
same,t½,[19]; intravenous 1 mg/kg,15.7 h
same,Hepatic ER,"[19]; intravenous 1 mg/kg, % of hepatic blood flow",10%
same,AUC,[19]; oral 2 mg/kg,22.1 µM·h
same,IC50,[20],> 10 µM
same,IC50,[21],> 10 µM
same,IC50,[22],> 10 µM
same,IC50,[23],> 10 µM
